The source of these data is patent US20200278355A1, “CONJUGATED PROTEINS AND USES THEREOF” (THE SCRIPPS RESEARCH INSTITUTE, priority 2017, published 2020).

The target in the assay is T1, HA-NR0B1-WT binding to FLAG-SNW1 (Homo sapiens, UniProt P51843).
T1 construct: expressed in transfected cells; host or cells: HEK293T (pRK5-based plasmids)
Put plainly: Modified in vitro binding assay: HA-NR0B1-WT from compound-treated HEK293T cells binding to FLAG-SNW1. The conditions noted are these: HEK293T cells expressing HA-NR0B1-WT treated with compound, lysate binding to FLAG-SNW1. It counts as cell-based. As for the experimental part: FIG. 5A-FIG. 5G show covalent ligand targeting C274 disrupts NR0B1 protein complexes. […] Percentage of NR0B1 bound to SNW1 was normalized to vehicle (DMSO). A hit compound BPK-26 is marked in red. […] HEK293T cells expressing the indicated proteins were treated with BPK-29 or vehicle (3 h) prior to treatment with BPK-29yne (30 min). Immunoprecipiated proteins were analyzed by in-gel fluorescence-scanning and immunoblotting. […] HEK293T cells expressing HA-NR0B1-WT or HA-NR0B1-C274V proteins were treated with DMSO or BPK-29, after which lysates were generated and evaluated for binding to FLAG-SNW1, as shown in (B).
FIG. 11A-FIG. 11F illustrate a covalent ligand targeting Cys274 disrupts NR0B1 protein complexes. […] See also FIG. 5C. […] Top: Structures of screening hit BPK-28 and synthesized derivatives. […] FLAG-immunoprecipitates were prepared from each lysate and subjected to proteolytic digestion, whereupon tryptic peptides harboring C274 were analyzed by LC-MS/MS. […] Immunoprecipitates were analyzed by in-gel fluorescence-scanning to assess BPK-29yne labeling or by immunoblot for FLAG-NR0B1. […] In a modified in vitro binding assay shown in FIG. 5B, HEK293T cells expressing HA-NR0B1-WT or an HA-NR0B1-C274V mutant were treated with DMSO or BPK-26 (20 μM, 3 h), after which lysates were and interaction with FLAG-SNW1 assessed. […]

T1 sequence (P51843 whole entry): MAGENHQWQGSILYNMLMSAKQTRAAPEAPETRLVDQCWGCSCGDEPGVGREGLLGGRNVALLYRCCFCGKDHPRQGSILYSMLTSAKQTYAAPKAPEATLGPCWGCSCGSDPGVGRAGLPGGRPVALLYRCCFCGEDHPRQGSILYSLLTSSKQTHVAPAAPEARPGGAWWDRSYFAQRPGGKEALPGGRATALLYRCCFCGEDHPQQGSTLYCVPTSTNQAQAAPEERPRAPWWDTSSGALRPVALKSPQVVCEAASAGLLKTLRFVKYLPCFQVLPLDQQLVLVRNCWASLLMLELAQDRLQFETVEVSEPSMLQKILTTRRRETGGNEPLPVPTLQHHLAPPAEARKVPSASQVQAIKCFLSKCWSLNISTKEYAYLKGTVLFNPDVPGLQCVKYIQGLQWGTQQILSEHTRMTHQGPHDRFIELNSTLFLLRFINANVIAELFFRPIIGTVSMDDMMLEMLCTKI

`O=C(c1ccc(N2CCOCC2)cc1)N1CCCC(N(Cc2ccccc2)C(=O)CCl)CC1` (stereo not shown) [BPK-29, N-benzyl-2-chloro-N-(1-(4-morpholinobenzoyl)azepan-4-yl)acetamide]: the “disruption of NR0B1-WT protein interactions (binding to FLAG-SNW1)” value is “disrupts protein interactions for NR0B1-WT”.
